Results from the NIST ThermoML archive (doi:10.1021/je800883b).
± gives the expanded uncertainty stated by the source.

Experiments:
[1] = 101 kPa, Liquid, Pycnometric method
[2] = xn = mol fraction of the nth substance listed; settings: 101 kPa, Liquid, Pycnometric method

SMILES: c1ccccc1 [benzene]
- mass density ([1]; 303.15 K): 868.1 ± 0.6 kg/m3
- mass density ([1]; 313.15 K): 857.4 ± 0.6 kg/m3
- mass density ([1]; 323.15 K): 846.6 ± 0.6 kg/m3

SMILES: c1ccccc1 [benzene] + CCC(C)=O
- mass density ([2]; 303.15 K, x2 = 0): 868.1 ± 0.6 kg/m3
- mass density ([2]; 313.15 K, x2 = 0): 857.4 ± 0.6 kg/m3
- mass density ([2]; 323.15 K, x2 = 0): 846.6 ± 0.6 kg/m3

SMILES: CCC(C)=O [butanone]
- mass density ([1]; 303.15 K): 794.6 ± 0.8 kg/m3
- mass density ([1]; 313.15 K): 784 ± 0.8 kg/m3
- mass density ([1]; 323.15 K): 773.3 ± 0.8 kg/m3

SMILES: CCC(C)=O [butanone] + C1CCCCC1
- mass density ([2]; 303.15 K, x1 = 0.1066): 768 ± 0.6 kg/m3
- mass density ([2]; 303.15 K, x1 = 0.2093): 768.3 ± 0.6 kg/m3
- mass density ([2]; 303.15 K, x1 = 0.3084): 769.5 ± 0.6 kg/m3
- mass density ([2]; 303.15 K, x1 = 0.4042): 771.3 ± 0.6 kg/m3
- mass density ([2]; 303.15 K, x1 = 0.5064): 773.6 ± 0.7 kg/m3
- mass density ([2]; 303.15 K, x1 = 0.6055): 776.2 ± 0.7 kg/m3
- mass density ([2]; 303.15 K, x1 = 0.7007): 779.8 ± 0.7 kg/m3
- mass density ([2]; 303.15 K, x1 = 0.8015): 784 ± 0.7 kg/m3
- mass density ([2]; 303.15 K, x1 = 0.907): 789.6 ± 0.8 kg/m3
- mass density ([2]; 303.15 K, x1 = 1): 794.6 ± 0.8 kg/m3
- mass density ([2]; 313.15 K, x1 = 0.1066): 758.3 ± 0.6 kg/m3
- mass density ([2]; 313.15 K, x1 = 0.2093): 757.4 ± 0.6 kg/m3
- mass density ([2]; 313.15 K, x1 = 0.3084): 758.2 ± 0.6 kg/m3
- mass density ([2]; 313.15 K, x1 = 0.4042): 759.9 ± 0.6 kg/m3
- mass density ([2]; 313.15 K, x1 = 0.5064): 762.4 ± 0.7 kg/m3
- mass density ([2]; 313.15 K, x1 = 0.6055): 765.1 ± 0.7 kg/m3
- mass density ([2]; 313.15 K, x1 = 0.7007): 769.2 ± 0.7 kg/m3
- mass density ([2]; 313.15 K, x1 = 0.8015): 772.7 ± 0.7 kg/m3
- mass density ([2]; 313.15 K, x1 = 0.907): 777.8 ± 0.8 kg/m3
- mass density ([2]; 313.15 K, x1 = 1): 784 ± 0.8 kg/m3
- mass density ([2]; 323.15 K, x1 = 0.1066): 747.4 ± 0.6 kg/m3
- mass density ([2]; 323.15 K, x1 = 0.2093): 746.5 ± 0.6 kg/m3
- mass density ([2]; 323.15 K, x1 = 0.3084): 747.3 ± 0.6 kg/m3
- mass density ([2]; 323.15 K, x1 = 0.4042): 749.2 ± 0.6 kg/m3
- mass density ([2]; 323.15 K, x1 = 0.5064): 751.3 ± 0.7 kg/m3
- mass density ([2]; 323.15 K, x1 = 0.6055): 754.4 ± 0.7 kg/m3
- mass density ([2]; 323.15 K, x1 = 0.7007): 757.8 ± 0.7 kg/m3
- mass density ([2]; 323.15 K, x1 = 0.8015): 761.7 ± 0.7 kg/m3
- mass density ([2]; 323.15 K, x1 = 0.907): 767.2 ± 0.8 kg/m3
- mass density ([2]; 323.15 K, x1 = 1): 773.3 ± 0.8 kg/m3

SMILES: CCC(C)=O [butanone] + CCCCCC
- mass density ([2]; 303.15 K, x1 = 0.1057): 660 ± 2.2 kg/m3
- mass density ([2]; 303.15 K, x1 = 0.2048): 670 ± 2 kg/m3
- mass density ([2]; 303.15 K, x1 = 0.3035): 680.6 ± 1.8 kg/m3
- mass density ([2]; 303.15 K, x1 = 0.4071): 692.9 ± 1.6 kg/m3
- mass density ([2]; 303.15 K, x1 = 0.5035): 706 ± 1.4 kg/m3
- mass density ([2]; 303.15 K, x1 = 0.6029): 720.7 ± 1.3 kg/m3
- mass density ([2]; 303.15 K, x1 = 0.7042): 736.8 ± 1.1 kg/m3
- mass density ([2]; 303.15 K, x1 = 0.8059): 754.9 ± 1 kg/m3
- mass density ([2]; 303.15 K, x1 = 0.9033): 774 ± 0.9 kg/m3
- mass density ([2]; 303.15 K, x1 = 1): 794.6 ± 0.8 kg/m3
- mass density ([2]; 313.15 K, x1 = 0.1057): 650.4 ± 2.2 kg/m3
- mass density ([2]; 313.15 K, x1 = 0.2048): 659 ± 1.9 kg/m3
- mass density ([2]; 313.15 K, x1 = 0.3035): 669.5 ± 1.8 kg/m3
- mass density ([2]; 313.15 K, x1 = 0.4071): 682 ± 1.6 kg/m3
- mass density ([2]; 313.15 K, x1 = 0.5035): 694.7 ± 1.4 kg/m3
- mass density ([2]; 313.15 K, x1 = 0.6029): 709.2 ± 1.3 kg/m3
- mass density ([2]; 313.15 K, x1 = 0.7042): 725.3 ± 1.1 kg/m3
- mass density ([2]; 313.15 K, x1 = 0.8059): 742.9 ± 1 kg/m3
- mass density ([2]; 313.15 K, x1 = 0.9033): 763 ± 0.9 kg/m3
- mass density ([2]; 313.15 K, x1 = 1): 784 ± 0.8 kg/m3
- mass density ([2]; 323.15 K, x1 = 0.1057): 639.6 ± 2.1 kg/m3
- mass density ([2]; 323.15 K, x1 = 0.2048): 648 ± 1.9 kg/m3
- mass density ([2]; 323.15 K, x1 = 0.3035): 658.5 ± 1.7 kg/m3
- mass density ([2]; 323.15 K, x1 = 0.4071): 670.4 ± 1.6 kg/m3
- mass density ([2]; 323.15 K, x1 = 0.5035): 683.8 ± 1.4 kg/m3
- mass density ([2]; 323.15 K, x1 = 0.6029): 698.2 ± 1.2 kg/m3
- mass density ([2]; 323.15 K, x1 = 0.7042): 714.2 ± 1.1 kg/m3
- mass density ([2]; 323.15 K, x1 = 0.8059): 732.2 ± 1 kg/m3
- mass density ([2]; 323.15 K, x1 = 0.9033): 752.3 ± 0.9 kg/m3
- mass density ([2]; 323.15 K, x1 = 1): 773.3 ± 0.8 kg/m3

SMILES: CCC(C)=O [butanone] + c1ccccc1
- mass density ([2]; 303.15 K, x1 = 0.101): 861.2 ± 0.6 kg/m3
- mass density ([2]; 303.15 K, x1 = 0.1999): 854.2 ± 0.6 kg/m3
- mass density ([2]; 303.15 K, x1 = 0.2988): 847.1 ± 0.6 kg/m3
- mass density ([2]; 303.15 K, x1 = 0.3969): 839.9 ± 0.7 kg/m3
- mass density ([2]; 303.15 K, x1 = 0.4996): 832.7 ± 0.7 kg/m3
- mass density ([2]; 303.15 K, x1 = 0.5988): 825.2 ± 0.7 kg/m3
- mass density ([2]; 303.15 K, x1 = 0.6993): 817.5 ± 0.7 kg/m3
- mass density ([2]; 303.15 K, x1 = 0.7931): 809.9 ± 0.8 kg/m3
- mass density ([2]; 303.15 K, x1 = 0.8961): 802.2 ± 0.8 kg/m3
- mass density ([2]; 303.15 K, x1 = 1): 794.6 ± 0.8 kg/m3
- mass density ([2]; 313.15 K, x1 = 0.101): 850.6 ± 0.6 kg/m3
- mass density ([2]; 313.15 K, x1 = 0.1999): 843.5 ± 0.6 kg/m3
- mass density ([2]; 313.15 K, x1 = 0.2988): 836.6 ± 0.7 kg/m3
- mass density ([2]; 313.15 K, x1 = 0.3969): 829.3 ± 0.7 kg/m3
- mass density ([2]; 313.15 K, x1 = 0.4996): 822.1 ± 0.7 kg/m3
- mass density ([2]; 313.15 K, x1 = 0.5988): 814.6 ± 0.7 kg/m3
- mass density ([2]; 313.15 K, x1 = 0.6993): 806.9 ± 0.7 kg/m3
- mass density ([2]; 313.15 K, x1 = 0.7931): 799.4 ± 0.8 kg/m3
- mass density ([2]; 313.15 K, x1 = 0.8961): 791.7 ± 0.8 kg/m3
- mass density ([2]; 313.15 K, x1 = 1): 784 ± 0.8 kg/m3
- mass density ([2]; 323.15 K, x1 = 0.101): 839.9 ± 0.6 kg/m3
- mass density ([2]; 323.15 K, x1 = 0.1999): 832.9 ± 0.6 kg/m3
- mass density ([2]; 323.15 K, x1 = 0.2988): 825.9 ± 0.7 kg/m3
- mass density ([2]; 323.15 K, x1 = 0.3969): 818.7 ± 0.7 kg/m3
- mass density ([2]; 323.15 K, x1 = 0.4996): 811.5 ± 0.7 kg/m3
- mass density ([2]; 323.15 K, x1 = 0.5988): 803.9 ± 0.7 kg/m3
- mass density ([2]; 323.15 K, x1 = 0.6993): 796.4 ± 0.7 kg/m3
- mass density ([2]; 323.15 K, x1 = 0.7931): 788.9 ± 0.8 kg/m3
- mass density ([2]; 323.15 K, x1 = 0.8961): 781.1 ± 0.8 kg/m3
- mass density ([2]; 323.15 K, x1 = 1): 773.3 ± 0.8 kg/m3

SMILES: C1CCCCC1 [cyclohexane]
- mass density ([1]; 303.15 K): 768.9 ± 0.6 kg/m3
- mass density ([1]; 313.15 K): 759.2 ± 0.6 kg/m3
- mass density ([1]; 323.15 K): 748.7 ± 0.6 kg/m3

SMILES: C1CCCCC1 [cyclohexane] + CCC(C)=O
- mass density ([2]; 303.15 K, x2 = 0): 768.9 ± 0.6 kg/m3
- mass density ([2]; 313.15 K, x2 = 0): 759.2 ± 0.6 kg/m3
- mass density ([2]; 323.15 K, x2 = 0): 748.7 ± 0.6 kg/m3

SMILES: CCCCCC [hexane]
- mass density ([1]; 303.15 K): 650.9 ± 2.4 kg/m3
- mass density ([1]; 313.15 K): 641.7 ± 2.4 kg/m3
- mass density ([1]; 323.15 K): 630.9 ± 2.3 kg/m3

SMILES: CCCCCC [hexane] + CCC(C)=O
- mass density ([2]; 303.15 K, x2 = 0): 650.9 ± 2.4 kg/m3
- mass density ([2]; 313.15 K, x2 = 0): 641.7 ± 2.4 kg/m3
- mass density ([2]; 323.15 K, x2 = 0): 630.9 ± 2.3 kg/m3
